In the NIST ThermoML archive (doi:10.1016/j.jct.2008.10.010):
Numbers after ± are expanded uncertainties.

Assay: molar heat capacity at constant pressure; xn = mol fraction of the nth substance listed
Conditions: 101.3 kPa, Liquid, Small sample (50 mg) DSC

Compound: CCC(C)(C)O [2-methylbutan-2-ol] + CCCCCCC
- molar heat capacity at constant pressure (327.15 K, x1 = 0.1547): 258.26 ± 4 J/K/mol
- molar heat capacity at constant pressure (327.15 K, x1 = 0.2993): 269.94 ± 4.2 J/K/mol
- molar heat capacity at constant pressure (327.15 K, x1 = 0.4051): 274.66 ± 4.3 J/K/mol
- molar heat capacity at constant pressure (327.15 K, x1 = 0.4986): 277.47 ± 4.3 J/K/mol
- molar heat capacity at constant pressure (327.15 K, x1 = 0.5981): 279.08 ± 4.3 J/K/mol
- molar heat capacity at constant pressure (327.15 K, x1 = 0.7015): 280.02 ± 4.3 J/K/mol
- molar heat capacity at constant pressure (327.15 K, x1 = 0.8023): 279.59 ± 4.3 J/K/mol
- molar heat capacity at constant pressure (327.15 K, x1 = 0.9139): 278.56 ± 4.3 J/K/mol
- molar heat capacity at constant pressure (327.15 K, x1 = 0.9609): 277.44 ± 4.3 J/K/mol
- molar heat capacity at constant pressure (328.15 K, x1 = 0.0061): 236.22 ± 3.7 J/K/mol
- molar heat capacity at constant pressure (328.15 K, x1 = 0.0249): 237.72 ± 3.7 J/K/mol
- molar heat capacity at constant pressure (328.15 K, x1 = 0.0494): 242.15 ± 3.8 J/K/mol
- molar heat capacity at constant pressure (328.15 K, x1 = 0.1): 251.24 ± 3.9 J/K/mol
- molar heat capacity at constant pressure (328.15 K, x1 = 0.1547): 258.56 ± 4 J/K/mol
- molar heat capacity at constant pressure (328.15 K, x1 = 0.1999): 263.19 ± 4.1 J/K/mol
- molar heat capacity at constant pressure (328.15 K, x1 = 0.2993): 270.46 ± 4.2 J/K/mol
- molar heat capacity at constant pressure (328.15 K, x1 = 0.4051): 275.23 ± 4.3 J/K/mol
- molar heat capacity at constant pressure (328.15 K, x1 = 0.4986): 278.16 ± 4.3 J/K/mol
- molar heat capacity at constant pressure (328.15 K, x1 = 0.5981): 279.9 ± 4.3 J/K/mol
- molar heat capacity at constant pressure (328.15 K, x1 = 0.7015): 280.91 ± 4.3 J/K/mol
- molar heat capacity at constant pressure (328.15 K, x1 = 0.8023): 280.5 ± 4.3 J/K/mol
- molar heat capacity at constant pressure (328.15 K, x1 = 0.9139): 279.46 ± 4.3 J/K/mol
- molar heat capacity at constant pressure (328.15 K, x1 = 0.9609): 278.39 ± 4.3 J/K/mol
- molar heat capacity at constant pressure (329.14 K, x1 = 0.0061): 236.63 ± 3.7 J/K/mol
- molar heat capacity at constant pressure (329.14 K, x1 = 0.0249): 238.11 ± 3.7 J/K/mol
- molar heat capacity at constant pressure (329.14 K, x1 = 0.0494): 242.34 ± 3.8 J/K/mol
- molar heat capacity at constant pressure (329.14 K, x1 = 0.1): 251.42 ± 3.9 J/K/mol
- molar heat capacity at constant pressure (329.14 K, x1 = 0.1547): 258.8 ± 4 J/K/mol
- molar heat capacity at constant pressure (329.14 K, x1 = 0.1999): 263.54 ± 4.1 J/K/mol
- molar heat capacity at constant pressure (329.14 K, x1 = 0.2993): 270.92 ± 4.2 J/K/mol
- molar heat capacity at constant pressure (329.14 K, x1 = 0.4051): 275.78 ± 4.3 J/K/mol
- molar heat capacity at constant pressure (329.14 K, x1 = 0.4986): 278.83 ± 4.3 J/K/mol
- molar heat capacity at constant pressure (329.14 K, x1 = 0.5981): 280.59 ± 4.3 J/K/mol
- molar heat capacity at constant pressure (329.14 K, x1 = 0.7015): 281.67 ± 4.4 J/K/mol
- molar heat capacity at constant pressure (329.14 K, x1 = 0.8023): 281.37 ± 4.4 J/K/mol
- molar heat capacity at constant pressure (329.14 K, x1 = 0.9139): 280.33 ± 4.3 J/K/mol
- molar heat capacity at constant pressure (329.14 K, x1 = 0.9609): 279.29 ± 4.3 J/K/mol
- molar heat capacity at constant pressure (330.14 K, x1 = 0.0061): 237.14 ± 3.7 J/K/mol
- molar heat capacity at constant pressure (330.14 K, x1 = 0.1): 251.61 ± 3.9 J/K/mol
- molar heat capacity at constant pressure (330.14 K, x1 = 0.1547): 259.04 ± 4 J/K/mol
- molar heat capacity at constant pressure (330.14 K, x1 = 0.2993): 271.42 ± 4.2 J/K/mol
- molar heat capacity at constant pressure (330.14 K, x1 = 0.4986): 279.45 ± 4.3 J/K/mol
- molar heat capacity at constant pressure (330.14 K, x1 = 0.5981): 281.32 ± 4.4 J/K/mol
- molar heat capacity at constant pressure (330.14 K, x1 = 0.7015): 282.46 ± 4.4 J/K/mol
- molar heat capacity at constant pressure (330.14 K, x1 = 0.8023): 282.14 ± 4.4 J/K/mol
- molar heat capacity at constant pressure (330.14 K, x1 = 0.9139): 281.17 ± 4.4 J/K/mol
- molar heat capacity at constant pressure (330.14 K, x1 = 0.9609): 280.09 ± 4.3 J/K/mol
- molar heat capacity at constant pressure (330.15 K, x1 = 0.0249): 238.44 ± 3.7 J/K/mol
- molar heat capacity at constant pressure (330.15 K, x1 = 0.0494): 242.58 ± 3.8 J/K/mol
- molar heat capacity at constant pressure (330.15 K, x1 = 0.1999): 263.87 ± 4.1 J/K/mol
- molar heat capacity at constant pressure (330.15 K, x1 = 0.4051): 276.4 ± 4.3 J/K/mol
- molar heat capacity at constant pressure (331.15 K, x1 = 0.0061): 237.49 ± 3.7 J/K/mol
- molar heat capacity at constant pressure (331.15 K, x1 = 0.0249): 238.7 ± 3.7 J/K/mol
- molar heat capacity at constant pressure (331.15 K, x1 = 0.0494): 242.66 ± 3.8 J/K/mol
- molar heat capacity at constant pressure (331.15 K, x1 = 0.1): 251.73 ± 3.9 J/K/mol
- molar heat capacity at constant pressure (331.15 K, x1 = 0.1547): 259.17 ± 4 J/K/mol
- molar heat capacity at constant pressure (331.15 K, x1 = 0.1999): 264.08 ± 4.1 J/K/mol
- molar heat capacity at constant pressure (331.15 K, x1 = 0.2993): 271.78 ± 4.2 J/K/mol
- molar heat capacity at constant pressure (331.15 K, x1 = 0.4051): 276.82 ± 4.3 J/K/mol
- molar heat capacity at constant pressure (331.15 K, x1 = 0.4986): 280.03 ± 4.3 J/K/mol
- molar heat capacity at constant pressure (331.15 K, x1 = 0.5981): 282 ± 4.4 J/K/mol
- molar heat capacity at constant pressure (331.15 K, x1 = 0.7015): 283.13 ± 4.4 J/K/mol
- molar heat capacity at constant pressure (331.15 K, x1 = 0.8023): 282.9 ± 4.4 J/K/mol
- molar heat capacity at constant pressure (331.15 K, x1 = 0.9139): 281.93 ± 4.4 J/K/mol
- molar heat capacity at constant pressure (331.15 K, x1 = 0.9609): 280.9 ± 4.3 J/K/mol
- molar heat capacity at constant pressure (332.11 K, x1 = 0.4051): 277.29 ± 4.3 J/K/mol
- molar heat capacity at constant pressure (332.14 K, x1 = 0.0061): 237.91 ± 3.7 J/K/mol
- molar heat capacity at constant pressure (332.14 K, x1 = 0.0249): 239.06 ± 3.7 J/K/mol
- molar heat capacity at constant pressure (332.14 K, x1 = 0.0494): 242.88 ± 3.8 J/K/mol
- molar heat capacity at constant pressure (332.14 K, x1 = 0.1): 251.74 ± 3.9 J/K/mol
- molar heat capacity at constant pressure (332.14 K, x1 = 0.1547): 259.34 ± 4 J/K/mol
- molar heat capacity at constant pressure (332.14 K, x1 = 0.1999): 264.36 ± 4.1 J/K/mol
- molar heat capacity at constant pressure (332.14 K, x1 = 0.2993): 272.13 ± 4.2 J/K/mol
- molar heat capacity at constant pressure (332.14 K, x1 = 0.4986): 280.59 ± 4.3 J/K/mol
- molar heat capacity at constant pressure (332.14 K, x1 = 0.5981): 282.58 ± 4.4 J/K/mol
- molar heat capacity at constant pressure (332.14 K, x1 = 0.7015): 283.9 ± 4.4 J/K/mol
- molar heat capacity at constant pressure (332.14 K, x1 = 0.8023): 283.62 ± 4.4 J/K/mol
- molar heat capacity at constant pressure (332.14 K, x1 = 0.9139): 282.68 ± 4.4 J/K/mol
- molar heat capacity at constant pressure (332.14 K, x1 = 0.9609): 281.66 ± 4.4 J/K/mol
- molar heat capacity at constant pressure (333.14 K, x1 = 0.0061): 238.38 ± 3.7 J/K/mol
- molar heat capacity at constant pressure (333.14 K, x1 = 0.0249): 239.45 ± 3.7 J/K/mol
- molar heat capacity at constant pressure (333.14 K, x1 = 0.0494): 243.08 ± 3.8 J/K/mol
- molar heat capacity at constant pressure (333.14 K, x1 = 0.1): 251.95 ± 3.9 J/K/mol
- molar heat capacity at constant pressure (333.14 K, x1 = 0.1547): 259.59 ± 4 J/K/mol
- molar heat capacity at constant pressure (333.14 K, x1 = 0.1999): 264.68 ± 4.1 J/K/mol
- molar heat capacity at constant pressure (333.14 K, x1 = 0.2993): 272.54 ± 4.2 J/K/mol
- molar heat capacity at constant pressure (333.14 K, x1 = 0.4051): 277.88 ± 4.3 J/K/mol
- molar heat capacity at constant pressure (333.14 K, x1 = 0.4986): 281.17 ± 4.4 J/K/mol
- molar heat capacity at constant pressure (333.14 K, x1 = 0.7015): 284.62 ± 4.4 J/K/mol
- molar heat capacity at constant pressure (333.14 K, x1 = 0.8023): 284.48 ± 4.4 J/K/mol
- molar heat capacity at constant pressure (333.14 K, x1 = 0.9139): 283.56 ± 4.4 J/K/mol
- molar heat capacity at constant pressure (333.14 K, x1 = 0.9609): 282.52 ± 4.4 J/K/mol
- molar heat capacity at constant pressure (333.15 K, x1 = 0.5981): 283.29 ± 4.4 J/K/mol
- molar heat capacity at constant pressure (334.04 K, x1 = 0.0249): 239.87 ± 3.7 J/K/mol
- molar heat capacity at constant pressure (334.15 K, x1 = 0.0061): 238.94 ± 3.7 J/K/mol
- molar heat capacity at constant pressure (334.15 K, x1 = 0.0494): 243.42 ± 3.8 J/K/mol
- molar heat capacity at constant pressure (334.15 K, x1 = 0.1): 252.08 ± 3.9 J/K/mol
- molar heat capacity at constant pressure (334.15 K, x1 = 0.1547): 259.81 ± 4 J/K/mol
- molar heat capacity at constant pressure (334.15 K, x1 = 0.1999): 264.99 ± 4.1 J/K/mol
- molar heat capacity at constant pressure (334.15 K, x1 = 0.2993): 272.99 ± 4.2 J/K/mol
- molar heat capacity at constant pressure (334.15 K, x1 = 0.4051): 278.43 ± 4.3 J/K/mol
- molar heat capacity at constant pressure (334.15 K, x1 = 0.4986): 281.83 ± 4.4 J/K/mol
- molar heat capacity at constant pressure (334.15 K, x1 = 0.5981): 284.02 ± 4.4 J/K/mol
- molar heat capacity at constant pressure (334.15 K, x1 = 0.7015): 285.36 ± 4.4 J/K/mol
- molar heat capacity at constant pressure (334.15 K, x1 = 0.8023): 285.27 ± 4.4 J/K/mol
- molar heat capacity at constant pressure (334.15 K, x1 = 0.9139): 284.32 ± 4.4 J/K/mol
- molar heat capacity at constant pressure (334.15 K, x1 = 0.9609): 283.36 ± 4.4 J/K/mol
- molar heat capacity at constant pressure (334.33 K, x1 = 0.0249): 239.98 ± 3.7 J/K/mol
- molar heat capacity at constant pressure (335.14 K, x1 = 0.0061): 239.28 ± 3.7 J/K/mol
- molar heat capacity at constant pressure (335.14 K, x1 = 0.0249): 240.2 ± 3.7 J/K/mol
- molar heat capacity at constant pressure (335.14 K, x1 = 0.0494): 243.54 ± 3.8 J/K/mol
- molar heat capacity at constant pressure (335.14 K, x1 = 0.1): 252.23 ± 3.9 J/K/mol
- molar heat capacity at constant pressure (335.14 K, x1 = 0.1547): 259.88 ± 4 J/K/mol
- molar heat capacity at constant pressure (335.14 K, x1 = 0.1999): 265.1 ± 4.1 J/K/mol
- molar heat capacity at constant pressure (335.14 K, x1 = 0.2993): 273.19 ± 4.2 J/K/mol
- molar heat capacity at constant pressure (335.14 K, x1 = 0.4051): 278.76 ± 4.3 J/K/mol
- molar heat capacity at constant pressure (335.14 K, x1 = 0.4986): 282.26 ± 4.4 J/K/mol
- molar heat capacity at constant pressure (335.14 K, x1 = 0.5981): 284.55 ± 4.4 J/K/mol
- molar heat capacity at constant pressure (335.14 K, x1 = 0.7015): 286 ± 4.4 J/K/mol
- molar heat capacity at constant pressure (335.14 K, x1 = 0.8023): 285.89 ± 4.4 J/K/mol
- molar heat capacity at constant pressure (335.14 K, x1 = 0.9139): 285.08 ± 4.4 J/K/mol
- molar heat capacity at constant pressure (335.14 K, x1 = 0.9609): 284.15 ± 4.4 J/K/mol
- molar heat capacity at constant pressure (336.14 K, x1 = 0.0061): 239.67 ± 3.7 J/K/mol
- molar heat capacity at constant pressure (336.14 K, x1 = 0.0249): 240.6 ± 3.7 J/K/mol
- molar heat capacity at constant pressure (336.14 K, x1 = 0.0494): 243.78 ± 3.8 J/K/mol
